One series concerns Candida albicans. The experiment in a line: Antimicrobial screening by agar dilution, Candida albicans. Format: cell-based. To be noted: after 10, 20, 40 and 60 minutes at all dilutions 1:100, 1:200, 1:400, 1:800. How it is done:
(§1) The antibacterial properties of the synthesized compound 2-benzo-[3,4-b]quinolino-[b,g]indeno[1′,2′:3,4]fluoreno-[1,2-d]oxonine-5,11,16,21-tetraone were studied by the method of agar dilution. Test solutions of each compound was prepared in concentration of 1% using dimethylformamide as a solvent then they are diluted in physiological solution to obtain the final experimental dilutions 1:100, 1:200, 1:400, 1:800. The effect of these substances are compared with furacillin in a controllable study. The testing microbes used were gram positive bacteria Staphylococcus aureus, gram negative bacteria Pseudomonas aeruginosa and Escherichia co/i and Candida albicans fungus. The experiments used for this survey were meat-pentonlu agar (EPA) for cultivation of bacteria and Saburo environment for the fungus. Each experiment used 1 mL of test solution on each plate […]. Two drops of emulsified with microbes feel were added. All experimental samples were taken from the agar after 10, 20, 40, 60 minutes in the environment on the basis of Patrk planted. The bacteria were cultivated at a temperature of 37° C. for 1 day and the mushroom was kept in a thermostat for […] at a temperature of 28° C. Then results were checked.

In another series the test system is Escherichia coli. The series can be described thus: Antimicrobial screening by agar dilution, Escherichia coli. In kind it is cell-based. To be noted: after 10, 20, 40 and 60 minutes at all dilutions 1:100, 1:200, 1:400, 1:800. How it is done:
as §1

The test system of the next series is Staphylococcus aureus. The experiment in a line: Antimicrobial screening by agar dilution, Staphylococcus aureus. To be noted: after 10, 20, 40 and 60 minutes at all dilutions 1:100, 1:200, 1:400, 1:800. Format: cell-based. The protocol: as §1
A further series has as its system Pseudomonas aeruginosa. The series can be described thus: Antimicrobial screening by agar dilution, Pseudomonas aeruginosa. The note with it: after 10, 20, 40 and 60 minutes at all dilutions 1:100, 1:200, 1:400, 1:800. In kind it is cell-based. The protocol: as §1

Consider `O=C1Oc2nc3ccccc3cc2-c2c(c3c4ccccc4c(=O)c3c3c2c(=O)c2ccccc23)C(=O)c2ccccc21` [2-benzo-[3,4-b]quinolino-[b,g]indeno[1′,2′:3,4]fluoreno-[1,2-d]oxonine-5,11,16,21-tetraone], for which the melting point was found to be 251 °C. The inhibition activity entry in the series with Candida albicans is recorded as “highest inhibition activity”. In addition, the inhibition activity result with Escherichia coli is reported as “highest inhibition activity”. In the series on Staphylococcus aureus, the inhibition activity entry was “highest inhibition activity”. Also, the inhibition activity entry with Pseudomonas aeruginosa is “highest inhibition activity”.

The values are drawn from patent publication US11970504B1, “2-benzo-[3,4-b] quinolino-{b,g]indeno [1′,2′:3,4] fluoreno-[1,2-d] Oxonine-5,11,16,21-tetraone as an antimicrobial compound” (KING FAISAL UNIVERSITY, priority 2023, dated 2024).
